Results published in patent publication US11884710B2, “Peptide compounds and methods of use in wound healing” (priority 2013, dated 2024).
Where two headings read alike, the source gives them in different places. Square brackets hold non-standard residues; d marks the D form. Ends that are not written are not given here. PEG2 = NCCOCCOCCC(=O)O

Experiments:
[1] = tested on: Pseudomonas clinical isolate B64; assay: BIOSCREEN C growth assay, peptide plus antibiotic combinations; assay type: cell-based, Pseudomonas aeruginosa; details: for MIC: Pseudomonas
Method: FIGS. 28A and 28B show the effect of BCC002-5R-MP (SEQ ID NO:21) in combination with Cefotaxime on MIC using Pseudomonas clinical isolate B64. Cefotaxime (Cefo) and peptide combinations included a constant amount of Cefotaxime (2.81 μg/ml) with suboptimal amounts of peptide (0, 0.34, 1.01, and 3.04 μg/ml). […] FIG. 28B is a histogram showing Fractional area (FA), which is an indication of the MIC.
FIG. 29B is a histogram showing Fractional area (FA), which is an indication of the MIC.
FIGS. 30A and 30B show the effect of BCC02-5R-MP (SEQ ID NO:21) in combination with Levofloxacin (Levo) and peptide combinations included a constant amount of Levofloxacin (3.6 μg/ml) with suboptimal amounts of peptide (0, 0.34, 1.01, 3.04 μg/ml). […] FIG. 30B is a histogram showing Fractional area (FA), which is an indication of the MIC.
The peptide and antibiotics were set up in the wells of the microtiter plate at starting ratios of MIC equivalents of antibiotic:peptide at 3:1, 1:1, and 1:3. They were serially diluted to concentrations well below suboptimal/sublethal levels of the antibiotic and peptide. The organism was added (1×10^5 CFU/well), the BIOSCREEN C™ assay (Growth Systems USA, Piscataway, N.J.) was performed, and data was collected over 24 hours.

[2] = tested on: full thickness excisional wounds; assay: Histopathology of swine dermal wounds; assay type: in vivo; parameters: Inflammation, mean histopathology score / Angiogenesis, mean histopathology score / Granulation, mean histopathology score / Epithelization, mean histopathology score: scale not given here
Method: The characteristics that were measured are required to indicate features of a well-healed wound. Inflammation should be low and re-epithelialization high.
(§1) Full thickness excisional wounds were induced on the dorsum of swine (N=3) using a 1.0 cm biopsy punch. Treatments were administered (0.20 ml) to each wound (N=6 wounds per group), and the wounds were dressed with standard occlusive dressing ([…]™, 3M Corporation, St. Paul, Minn.). Treatments were reapplied daily and dressings changed. Clinical wound healing observations and wound area (2 mm) measurements were performed on days 0, 3, 5, 7, 10, and 14 post-wounding. Wound area (2 mm) data were expressed as percentage (%) of wound healing. Animals were terminated on day 14 with wounds harvested and processed for histological evaluation. […] All peptide formulation treatment groups healed faster with greater rate of closure and re-epithelialization over time, as compared to the saline control (Group A).
The histology correlated with the clinical observations. […] There were minimal differences in the amount or character of granulation tissue, inflammation, and angiogenesis. All the wounds were well filled and vascularized.

[3] = tested on: full thickness excisional wounds; assay: Swine full thickness excisional dermal wound model; assay type: in vivo; details: for Mean Wound Healing (%): topical 3 mg/ml, 0.20 ml daily
Method: In this Example, peptide compounds of the presently disclosed inventive concepts were evaluated as to their activity on the dermal wound healing process in a clinically relevant swine full thickness excisional wound model. Three different peptide formulations (Group B, Peptide 95-122 (SEQ ID NO:26); Group C, Peptide 120-146WH (SEQ ID NO:31); and Group D, Peptide 120-146QH-5RMP (SEQ ID NO:33)) were each evaluated at the same concentration (3 mg/ml). Sterile saline served as the control (Group A).
as §1

[4] = tested on: Pseudomonas aeruginosa ATCC 27853; assay: In vitro bactericidal assay, P. aeruginosa ATCC 27853 (FIGS. 12-14); assay type: cell-based; details: for bactericidal effectiveness concluded by extrapolation: even at substantially lower concentrations of the peptide
Method: (§2) Each of the test peptides was used at 25, 12.5 6.25, and 3.12 μM. The gentamicin was used at 4 μg/ml. 1×10^6/ml Pseudomonas aeruginosa ATCC® 27853™ (American Type Culture Collection, Manassas, Va.) were incubated with the peptides, negative buffer control (tryptone saline), and positive control gentamicin for 180 minutes at pH 7.2. 50 μl aliquots were plated out on agar plates and incubated overnight. Colony forming units were counted after overnight incubation and CFU/ml calculated.
as §2, with “12.5,” for “12.5”, “5.5.” for “7.2.”
FIG. 14 is a comparison of bactericidal activity of CAP37 peptides 120-146WR (SEQ ID NO:30), 120-146WH (SEQ ID NO:31), 120-146QR (SEQ ID NO:28), 120-146QH (SEQ ID NO:29), 120-146QR-5RMP (SEQ ID NO:32), and 120-146QH-5RMP (SEQ ID NO:33) for Pseudomonas aeruginosa ATCC® 27853™ (American Type Culture Collection, Manassas, Va.). 1×10^6/ml Pseudomonas aeruginosa ATCC® 27853™ were incubated with the peptides at 150, 75, and 37.5 μg/ml and negative buffer control (tryptone saline) for 180 minutes at pH 5.5. 50 μl aliquots were plated out on agar plates and incubated overnight. Colony forming units were counted after overnight incubation and CFU/ml calculated.
(§3) For FIGS. 10-13, in vitro bactericidal assays were performed using a starting inoculum of 1×10^6 CFU/ml of the bacterial suspension. The CFU remaining at the end of the 60-180 minute incubation was determined, and the data was plotted as log reduction in CFU/ml.
(§4) In particular, each of the test peptides (CAP37 peptides 120-146WR, 120-146WH, and 95-122 (SEQ ID NOS:30, 31, and 26, respectively)) was used at 25, 12.5, 6.25, and 3.12 μM. Gentamicin was used at 4 μg/ml. 1×10^6/ml Acinetobacter baumannii ATCC® BAA-747™ or Pseudomonas aeruginosa ATCC® 27853™ (American Type Culture Collection, Manassas, Va.) were incubated with the peptides, negative buffer control (tryptone saline), and positive control gentamicin at pH 5.5 or 7.2. A 60 minute incubation was used for Acinetobacter baumannii ATCC® BAA-747™, while a 180 minute incubation was used for Pseudomonas aeruginosa ATCC® 27853™. 50 μl aliquots were plated out on agar plates and incubated overnight. Colony forming units were counted after overnight incubation and CFU/ml calculated.
For FIG. 14, 1×10^6/ml Pseudomonas aeruginosa ATCC® 27853™ were incubated with each of the test peptides (CAP37 peptides 120-146WR, 120-146WH, 120-146QR, 120-146QH, 120-146QR-5RMP, and 120-146QH-5RMP (SEQ ID NOS:30, 31, 28, 29, 32, and 33, respectively)) at 150, 75, and 37.5 μg/ml, or negative buffer control (tryptone saline), for 180 minutes at pH 5.5. 50 μl aliquots were plated out on agar plates and incubated overnight. Colony forming units were counted after overnight incubation and CFU/ml calculated.

[5] = tested on: human corneal epithelial cell (HCEC); assay: HCEC chemotaxis, modified Boyden chemotaxis chamber; assay type: cell-based; details: for HCEC migration compared with the whole CAP37 protein, in words: 120-146QH at 10^−6 M and 10^−8 M, 120-146QR concentration not stated; for migration of HCECs vs buffer control, in words: 3 hours at 37° C.
Method: The effect of buffer control (0.1% BSA in Gey's buffer), heparin binding-epidermal growth factor (HB-EGF, 50 ng/ml), recombinant CAP37 (rCAP37, 250 ng/ml), 120-146QH (10^−12M, 10^−10 M, 10^−8 M, 10^−6M, and 10^−4M,) and 120-146QR (10^−10M, 10^−8M, 10^−6M, and 10^−4M) on HCEC chemotaxis was determined by the modified Boyden chemotaxis chamber method. HCEC chemotaxis was measured in response to HB-EGF, rCAP37, and peptides 120-146QH (SEQ ID NO:29) and 120-146QR (SEQ ID NO:28) after incubation for 3 hours at 37° C. Chemotaxis is expressed as a percent migration. The buffer control (no chemoattractant) is arbitrarily assigned the value of 100% migration. Data are expressed as means±SEM and are calculated from 6 observations for each test point. **P<0.01 by Wilcoxon signed-rank test as compared to controls.
Chemotaxis: Chemotaxis assays were performed using the modified Boyden chemotaxis chamber assay. Peptide 120-146QH was used at 10^−4 M, 10^−6 M, 10^−8 M, 10^−10 M, and 10^−12 M, and peptide 120-146QR was used at 10^−4 M, 10^−6 M, 10^−8M, and 10^−10M.

[6] = tested on: Acinetobacter baumannii ATCC BAA-747; assay: In vitro bactericidal assay, A. baumannii ATCC BAA-747 (FIGS. 10-11); assay type: cell-based; details: 60 minutes, peptides 3.12-25 μM, gentamicin 4 μg/ml
Method: as §2, with “6.25” for “6.25,”, “Acinetobacter baumannii” for “Pseudomonas aeruginosa”, “BAA-747™” for “27853™”, “60” for “180”, “5.5.” for “7.2.”
as §2, with “6.25” for “6.25,”, “Acinetobacter baumannii” for “Pseudomonas aeruginosa”, “BAA-747™” for “27853™”, “60” for “180”
as §3, §4

[7] = antibiotic alone, 1×10^5 CFU/well, 24 hours, read-out: MIC
[8] = wounds harvested on day 14, 3 mg/ml

Q: For CO/N=C(\C(=O)N[C@@H]1C(=O)N2C(C(=O)O)=C(COC(C)=O)CS[C@H]12)c1csc(N)n1 [Cefotaxime], which “bactericidal impact on growth curve, in words” value ([1]; Cefotaxime alone at 2.8 μg/ml) is on record?
A: The value was “very little bactericidal impact”.

Q: And the MIC [1, 7]?
A: Its MIC is 15 µg/mL.

Q: For C[C@H]1COc2c(N3CCN(C)CC3)c(F)cc3c(=O)c(C(=O)O)cn1c23 [Levofloxacin], which MIC [1, 7] is on record?
A: The MIC was 15 µg/mL.

Q: What about the MIC ([1]; in the presence of 3.04 μg/ml of peptide BCC02-5RMP, read-out: MIC of Levofloxacin with peptide) of the same compound?
A: Its MIC is 3.5 µg/mL.

Q: Which “epidermal resurfacing and maturation vs saline control, in words” value ([2]; day 14 post-wounding) does the source give for “(AEEP)-(AEEP)-RRRRGTRCQVAGWGSQHSGGRLSRFPRFVNVR ([PEG2][PEG2]RRRRGTRCQVAGWGSQHSGGRLSRFPRFVNVR) [120-146QH-5RMP]” here?
A: Its value is “greater extent of epidermal resurfacing and maturation of the epidermis”.

Q: What about the “Angiogenesis, mean histopathology score” value [2, 8] of the same compound?
A: The value was 1.3.

Q: And the “Epithelization, mean histopathology score” value [2, 8]?
A: The value was 4.0.

Q: What about the “Granulation, mean histopathology score” value [2, 8] of the same compound?
A: Its value is 4.0.

Q: What about the “Inflammation, mean histopathology score” value [2, 8] of the same compound?
A: The value was 0.5.

Q: What about the “Mean Wound Healing (%)” value ([3]; Day 0) of the same compound?
A: The value was 0.0%.

Q: And the “Mean Wound Healing (%)” value ([3]; Day 3)?
A: Its value is 22.5%.

Q: And the “Mean Wound Healing (%)” value ([3]; Day 5)?
A: The value was 34.1%.

Q: And the “Mean Wound Healing (%)” value ([3]; Day 7)?
A: Its value is 64.1%.

Q: And the “Mean Wound Healing (%)” value ([3]; Day 10)?
A: The value was 93.7%.

Q: And the “Mean Wound Healing (%)” value ([3]; Day 14)?
A: The value was 98.0%.

Q: And the “percentage of wound healing vs saline control, in words” value ([3]; days 10 and 14 post-wounding, 3 mg/ml)?
A: The value was “significant (p<0.05) increase in the percentage of wound healing”.

Q: What about the “reduction in CFU” value ([4]; FIG. 14, pH 5.5, 180 minutes, even at the lower concentration (75 μg/ml)) of the same compound?
A: The value was about 6 log.

Q: With “(AEEP)-(AEEP)-RRRRGTRCQVAGWGSWHSGGRLSRFPRFVNVR ([PEG2][PEG2]RRRRGTRCQVAGWGSWHSGGRLSRFPRFVNVR) [120-146WH-5RMP]” as the compound, how does the predicted killing capabilities [4] read?
A: The predicted killing capabilities was “superior killing capabilities”.

Q: And the “bactericidal effectiveness concluded by extrapolation” value [4]?
A: Its value is “highly effective”.

Q: What does the source list for “(AEEP)-(AEEP)-RRRRGTRCQVAGWGSWRSGGRLSRFPRFVNVR ([PEG2][PEG2]RRRRGTRCQVAGWGSWRSGGRLSRFPRFVNVR) [120-146WR-5RMP]”?
A: predicted killing capabilities [4]: superior killing capabilities; bactericidal effectiveness concluded by extrapolation [4]: highly effective

Q: For “GTRCQVAGWGSQHSGGRLSRFPRFVNV (derivative of peptide of Homo sapiens CAP37 protein) [Peptide 120-146QH]”, which “HCEC migration compared with the whole CAP37 protein, in words” value [5] is on record?
A: Its value is “comparable to the migration obtained with the whole CAP37 protein”.

Q: What about the “migration of HCECs vs buffer control, in words” value ([5]; peptide at 10^−4 M, 10^−6 M, 10^−8 M, and 10^−10 M) of the same compound?
A: The value was “significantly increase migration of HCECs”.

Q: And the “activity in in vitro killing assays, in words” value ([4]; FIG. 14, pH 5.5, 180 minutes)?
A: Its value is “relatively inactive”.

Q: Which “HCEC migration compared with the whole CAP37 protein, in words” value [5] does the source give for “GTRCQVAGWGSQRSGGRLSRFPRFVNV (listed as Homo sapiens) [Peptide 120-146QR]” here?
A: Its value is “less than the migration obtained with the whole protein”.

Q: And the “migration of HCECs vs buffer control, in words” value ([5]; peptide at 10^−6 M and 10^−8 M)?
A: Its value is “significantly increase migration of HCECs”.

Q: What about the “activity in in vitro killing assays, in words” value ([4]; FIG. 14, pH 5.5, 180 minutes) of the same compound?
A: Its value is “relatively inactive”.

Q: Which “bactericidal activity, in words” value ([4]; 120-146WR at 25 μM, gentamicin 4 μg/ml) does the source give for gentamicin [reference compound] here?
A: The value was “highly active”.

Q: What about the “reduction of CFU/ml” value ([4]; pH 5.5, 180 minutes, gentamicin 4 μg/ml) of the same compound?
A: Its value is 2 log.

Q: What about the “bactericidal activity, in words” value ([4]; pH 5.5, 180 minutes, peptides 3.12-25 μM, gentamicin 4 μg/ml) of the same compound?
A: The value was “not as effective as the peptides”.

Q: And the “bactericidal activity, in words” value ([6]; pH 5.5)?
A: The value was “unable to kill the bacteria”.

Q: And the “bactericidal activity, in words” value ([6]; pH 7.2)?
A: The value was “active against the bacteria”.
